Values belong to the molecule of their own block, whether it stands above or below them. Calls of active or inactive are those of the source. The calls are words filed in the database; no cut-off is given here.
Tests used:
[1] = (§1) Inhibition of NF-kappaB/AP-1 in mouse RAW264.7 cells assessed as reduction in LPS-induced nitric oxide production incubated for 1 hr followed by stimulation with LPS for 24 hrs by Griess assay; format: cell-based
[2] = (§2) Inhibition of NF-kappaB/AP-1 in mouse RAW264.7 cells assessed as reduction in LPS-induced PGE2 production incubated for 1 hr followed by stimulation with LPS for 24 hrs by enzyme immuno assay; format: cell-based
[3] = Cytotoxicity against LPS-induced mouse RAW264.7 cells assessed as decrease in cell viability after 24 hrs by MTT assay; format: toxicity; conditions: LPS-induced RAW264.7 cells
[4] = system: RAW264.7; assay: as §1; format: cell-based
[5] = system: RAW264.7; assay: as §2; format: cell-based
[6] = organism: Mus musculus; assay: Cytotoxicity against LPS-induced mouse RAW264.7 cells assessed as decrease in cell viability up to 50 uM after 24 hrs by MTT assay; format: toxicity, cell-based; conditions: raw264.7, 24 h
[7] = system: RAW264.7; assay: Inhibition of NF-kappaB/AP-1 in mouse RAW264.7 cells assessed as reduction in LPS-induced iNOS protein expression incubated for 1 hr followed by stimulation with LPS for 24 hrs by Western blot analysis; format: cell-based
[8] = system: RAW264.7; assay: Inhibition of NF-kappaB/AP-1 in mouse RAW264.7 cells assessed as reduction in LPS-induced iNOS mRNA level incubated for 4 hrs by SYBR green dye based qRT-PCR analysis; format: cell-based
[9] = system: RAW264.7; assay: Inhibition of NF-kappaB/AP-1 in mouse RAW264.7 cells assessed as reduction in LPS-induced COX-2 protein expression incubated for 1 hr followed by stimulation with LPS for 24 hrs by Western blot analysis; format: cell-based
[10] = system: RAW264.7; assay: Inhibition of NF-kappaB/AP-1 in mouse RAW264.7 cells assessed as reduction in LPS-induced COX-2 mRNA level incubated for 4 hrs by SYBR green dye based qRT-PCR analysis; format: cell-based
[11] = system: RAW264.7; assay: Inhibition of NF-kappaB/AP-1 in mouse RAW264.7 cells assessed as reduction in LPS-induced TNF-alpha production incubated for 1 hr followed by stimulation with LPS for 24 hrs by enzyme immuno assay; format: cell-based
[12] = system: RAW264.7; assay: Inhibition of NF-kappaB/AP-1 in mouse RAW264.7 cells assessed as reduction in LPS-induced IL-1beta production incubated for 1 hr followed by stimulation with LPS for 24 hrs by enzyme immuno assay; format: cell-based
[13] = system: RAW264.7; assay: Inhibition of NF-kappaB/AP-1 in mouse RAW264.7 cells assessed as reduction in LPS-induced IL-6 production incubated for 1 hr followed by stimulation with LPS for 24 hrs by enzyme immuno assay; format: cell-based
[14] = system: RAW264.7; assay: Inhibition of NF-kappaB/AP-1 in mouse RAW264.7 cells assessed as reduction in LPS-induced TNF-alpha mRNA level incubated for 4 hrs by SYBR green dye based qRT-PCR analysis; format: cell-based
[15] = system: RAW264.7; assay: Inhibition of NF-kappaB/AP-1 in mouse RAW264.7 cells assessed as reduction in LPS-induced IL-1beta mRNA level incubated for 4 hrs by SYBR green dye based qRT-PCR analysis; format: cell-based
[16] = system: RAW264.7; assay: Inhibition of NF-kappaB/AP-1 in mouse RAW264.7 cells assessed as reduction in LPS-induced IL-6 mRNA level incubated for 4 hrs by SYBR green dye based qRT-PCR analysis; format: cell-based
[17] = system: RAW264.7; assay: Inhibition of LPS-induced NF-kappaB (unknown origin) activity expressed in mouse RAW264.7 cells incubated for 1 hr followed by stimulation with LPS for 18 hrs by luciferase reporter gene assay; format: cell-based
[18] = target: Transcription factor Jun (Homo sapiens) (UniProt P05412); assay: Inhibition of LPS-induced AP-1 (unknown origin) activity expressed in mouse RAW264.7 cells incubated for 1 hr followed by stimulation with LPS for 18 hrs by luciferase reporter gene assay; format: cell-based
[19] = target: Transcription factor p65 (Mus musculus) (UniProt Q04207); assay: Inhibition of LPS-induced NF-kappaB p65 subunit nuclear translocation in mouse RAW264.7 cells at 50 uM incubated for 1 hr followed by stimulation with LPS for 15 to 45 mins; format: cell-based
[20] = target: Transcription factor p65 (Mus musculus) (UniProt Q04207); assay: Inhibition of LPS-induced NF-kappaB p65 subunit phosphorylation in mouse RAW264.7 cells at 50 uM incubated for 1 hr followed by stimulation with LPS for 15 to 45 mins; format: cell-based
[21] = target: RAC-alpha serine/threonine-protein kinase (Mus musculus) (UniProt P31750); assay: Inhibition of LPS-induced AKT phosphorylation in mouse RAW264.7 cells at 50 uM incubated for 1 hr followed by stimulation with LPS by Western blot analysis; format: cell-based
[22] = target: Proto-oncogene c-Fos (Mus musculus) (UniProt P01101); assay: Inhibition of LPS-induced AP-1 c-Fos component phosphorylation in nucleus of mouse RAW264.7 cells at 50 uM incubated for 1 hr followed by stimulation with LPS for 15 to 45 mins by Western blot analysis
Sequence of Proto-oncogene c-Fos (Mus musculus) (P01101 whole entry, looked up): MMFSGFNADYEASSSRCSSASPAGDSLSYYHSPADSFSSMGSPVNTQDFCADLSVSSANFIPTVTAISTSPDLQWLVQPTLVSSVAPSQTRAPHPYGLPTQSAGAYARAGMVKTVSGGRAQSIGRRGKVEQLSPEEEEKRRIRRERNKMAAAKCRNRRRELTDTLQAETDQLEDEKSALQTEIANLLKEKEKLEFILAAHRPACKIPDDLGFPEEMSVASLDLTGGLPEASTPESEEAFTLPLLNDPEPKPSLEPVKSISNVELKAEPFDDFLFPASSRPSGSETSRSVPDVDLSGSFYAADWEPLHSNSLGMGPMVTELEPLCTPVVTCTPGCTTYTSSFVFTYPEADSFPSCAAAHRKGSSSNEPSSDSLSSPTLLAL

Sequence of Transcription factor p65 (Mus musculus) (Q04207 whole entry): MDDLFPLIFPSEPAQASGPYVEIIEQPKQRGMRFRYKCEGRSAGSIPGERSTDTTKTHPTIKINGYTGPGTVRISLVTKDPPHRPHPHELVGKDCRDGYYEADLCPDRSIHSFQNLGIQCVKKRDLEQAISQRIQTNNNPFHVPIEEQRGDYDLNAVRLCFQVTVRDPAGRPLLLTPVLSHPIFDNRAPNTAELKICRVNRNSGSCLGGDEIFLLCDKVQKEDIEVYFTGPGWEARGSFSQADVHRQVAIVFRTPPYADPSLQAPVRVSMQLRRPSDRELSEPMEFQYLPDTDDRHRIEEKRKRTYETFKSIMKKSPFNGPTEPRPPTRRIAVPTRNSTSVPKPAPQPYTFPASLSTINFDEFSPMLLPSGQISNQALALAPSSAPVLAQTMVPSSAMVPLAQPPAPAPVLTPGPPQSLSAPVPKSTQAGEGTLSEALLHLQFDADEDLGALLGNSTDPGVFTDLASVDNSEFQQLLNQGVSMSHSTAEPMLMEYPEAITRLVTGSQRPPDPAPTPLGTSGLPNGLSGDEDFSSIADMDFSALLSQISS
Sequence of Transcription factor Jun (Homo sapiens) (P05412 whole entry): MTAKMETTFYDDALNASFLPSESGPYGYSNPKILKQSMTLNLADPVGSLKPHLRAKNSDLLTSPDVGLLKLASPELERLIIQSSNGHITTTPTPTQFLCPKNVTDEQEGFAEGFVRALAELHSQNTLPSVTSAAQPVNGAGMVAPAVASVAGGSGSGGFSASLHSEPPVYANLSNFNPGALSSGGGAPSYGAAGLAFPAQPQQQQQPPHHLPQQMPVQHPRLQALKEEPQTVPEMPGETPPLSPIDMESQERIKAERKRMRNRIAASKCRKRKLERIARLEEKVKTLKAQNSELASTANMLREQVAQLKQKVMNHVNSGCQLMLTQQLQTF
Sequence of RAC-alpha serine/threonine-protein kinase (Mus musculus) (P31750 whole entry): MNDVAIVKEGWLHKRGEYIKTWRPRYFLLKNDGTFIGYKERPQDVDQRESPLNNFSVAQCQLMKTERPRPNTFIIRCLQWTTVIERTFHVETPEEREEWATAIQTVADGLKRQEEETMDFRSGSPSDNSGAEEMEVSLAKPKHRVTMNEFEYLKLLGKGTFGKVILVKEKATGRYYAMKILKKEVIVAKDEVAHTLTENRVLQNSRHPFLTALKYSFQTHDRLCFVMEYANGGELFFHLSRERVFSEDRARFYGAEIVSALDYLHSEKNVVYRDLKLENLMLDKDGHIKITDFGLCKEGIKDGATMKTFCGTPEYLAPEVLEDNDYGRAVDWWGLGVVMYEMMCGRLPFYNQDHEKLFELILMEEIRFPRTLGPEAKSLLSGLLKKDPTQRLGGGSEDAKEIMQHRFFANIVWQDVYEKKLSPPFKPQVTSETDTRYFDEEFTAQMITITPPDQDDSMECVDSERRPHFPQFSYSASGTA

IC50 [1]: > 50 µM
IC50 [2]: > 50 µM
SMILES: CC1=CC(=O)CC(C)(C)[C@@]1(O)/C=C/[C@@H](C)O[C@@H]1O[C@H](COC(=O)/C=C/c2ccc(O)c(O)c2)[C@@H](O)[C@H](O)[C@H]1O
IC80 at 24 h [3]: 67.8 µM

IC50 [1]: 31.5 µM
IC50 [2]: > 50 µM
SMILES: C/C(=C\CO)CO[C@@H]1O[C@H](COC(=O)/C=C/c2ccc(O)c(O)c2)[C@@H](O)[C@H](O)[C@H]1O
IC80 at 24 h [3]: > 100 µM

Further lines, the molecule ahead of its results:

SMILES: C[C@H](/C=C/[C@@]1(O)[C@H](C)CC(=O)CC1(C)C)O[C@@H]1O[C@H](COC(=O)/C=C/c2ccc(O)c(O)c2)[C@@H](O)[C@H](O)[C@H]1O
IC50 [1]: > 50 µM
IC50 [2]: > 50 µM
IC80 at 24 h [3]: > 100 µM

SMILES: CC(=O)/C=C/C1=C(C)[C@@H](O)[C@@H](O[C@@H]2O[C@H](COC(=O)/C=C/c3ccc(O)c(O)c3)[C@@H](O)[C@H](O)[C@H]2O)CC1(C)C
IC50 [1]: > 50 µM
IC50 [2]: > 50 µM
IC80 at 24 h [3]: > 100 µM

SMILES: COc1cc(CCCO)cc(OC)c1O[C@@H]1O[C@H](COC(=O)/C=C/c2ccc(O)c(O)c2)[C@@H](O)[C@H](O)[C@H]1O
IC50 [1]: 43.6 µM
inhibition [4]: Dose-dependent effect
IC50 [2]: 48.3 µM
inhibition [5]: Dose-dependent effect
IC80 at 24 h [3]: 67.6 µM
Activity [6]: Non-Toxic
inhibition [7]: Dose-dependent effect
inhibition [8]: Dose-dependent effect
inhibition [9]: Dose-dependent effect
inhibition [10]: Dose-dependent effect
inhibition [11]: Active
inhibition [12]: Active
inhibition [13]: Active
inhibition [14]: Active
inhibition [15]: Active
inhibition [16]: Active
inhibition [17]: Dose-dependent effect
inhibition [18]: Dose-dependent effect
inhibition [19]: Active
inhibition [20]: Active
inhibition [21]: Active
inhibition [22]: Active

— ChEMBL document CHEMBL3856253, “6'-O-Caffeoyldihydrosyringin isolated from Aster glehni suppresses lipopolysaccharide-induced iNOS, COX-2, TNF-α, IL-1β and IL-6 expression via NF-κB and AP-1 inactivation in RAW 264.7 macrophages” (Bioorg Med Chem Lett, 2016)
